# Reference: PubChem BioAssay AID2305 (GlaxoSmithKline (GSK), 2010)
# System: P. falciparum 3D7 growth, pLDH absorbance
# Test: P. falciparum 3D7 growth inhibition, dose response, strain 3D7 (AID 2305)
row,Compound,IC50
1,COc1cc2nc(N3CCC(CNC(=O)c4cccc5cc[nH]c45)CC3)nc(N)c2cc1OC,1.58 µM
2,Cc1cccc(CC2CC(=O)N(c3ccc([N+](=O)[O-])cc3)C2=O)c1 (configuration not stated),0.2 µM
3,COc1ccc(CN(C)CCCc2ccc(NC(=O)c3cccc4c(=O)c5ccccc5[nH]c34)cc2)cc1OC,1.37 µM
4,Cc1nc(-c2cccc(C(=O)NC3CCC(CCN4CCc5ccc(-c6cccnc6)cc5CC4)CC3)c2)no1 (configuration not stated),0.76 µM
5,C[C@H](Cc1ccc(C(=O)OCCOC(=O)c2ccc(C[C@@H](C)NC[C@H](O)c3cccc(C(F)(F)F)c3)cc2)cc1)NC[C@H](O)c1cccc(C(F)(F)F)c1,0.82 µM
6,COc1ccc(C2C(C(=O)OC3CCCCC3)=C(C)NC3=C2C(=O)CCC3)cc1Br (configuration not stated),0.58 µM
7,N#CNC(=NCCCSc1csc(N=C(N)N)n1)NCCCCCCCCN=C(NC#N)NCCSCc1csc(N=C(N)N)n1,0.84 µM
8,CN(C)CCCNc1ncnc2c1[nH]c1ccc(F)cc12,0.73 µM
9,O=C(Cc1cnc[nH]1)Nc1ccc(-c2cccc(-c3nc4ccc(C(F)(F)F)cc4[nH]3)c2)cc1,0.74 µM
10,O=C(N[C@H]1CCN(CCc2ccc(O[C@H]3CCNC3)c(Cl)c2)C1)c1ccc(Cl)c(Cl)c1,0.89 µM
11,CC(Cc1ccc(OCCN2CCN(c3cccc(Cl)c3)CC2)cc1)NCC(O)c1cccc(C(F)(F)F)c1 (configuration not stated),0.6 µM
12,CN(CCN1CCC(c2c[nH]c3ccccc23)CC1)c1ccc(-c2nc3cc(Cl)c(Cl)cc3[nH]2)cc1,0.12 µM
13,CC(C)CNCc1ccc(-c2cccc(CNc3ccc4ncccc4c3)c2)cc1,0.91 µM
14,Cc1cc(-c2nc3ccc(C(=O)NCc4ccccc4)cc3n2C2CCN(C(=O)c3ccc(-c4ccccc4)cc3)CC2)ccn1,0.9 µM
15,CCNc1cc(C)nc(Nc2ccc(NC(=O)c3ccco3)cc2)n1,1.09 µM
16,Cc1ccc(NC(=O)c2cccc(CN3CCCN(Cc4cccc(O)c4)CC3)c2)cc1,1.31 µM
17,O=S1(=O)C=C(c2ccccc2)CC1,0.2 µM
18,Cc1nc(NCc2ccccc2)cc(Nc2cc(NCc3ccccc3)nc(C)n2)n1,0.97 µM
19,CCOC(=O)c1ccc(N2CCN(CCCNC(=O)/C(=C/C=C/c3cc4cc(Cl)c(Cl)cc4[nH]3)OC)CC2)cc1,0.85 µM
20,CC(C)CCN1CCCN(Cc2ccc(C(=O)NCc3ccc(Cl)cc3)cc2)CC1,1.01 µM
21,O=C(/C=C/c1ccc(Cl)c(Cl)c1)NCCCCCN1CCCN(C(=S)Nc2ccc(Cl)c(Cl)c2)CC1,0.87 µM
22,Fc1ccc(-c2cncc(-c3ccc(F)cc3)n2)cc1,0.64 µM
23,COc1ccc(-c2ccc(NC(=O)c3cccc(Cl)c3)cc2)cc1CN(C)CCN(C)C,0.78 µM

row,Compound,IC50
1,Cc1c(NC(=O)COc2ccc(Cl)cc2C(=O)c2cc(F)cc(C(F)(F)F)c2)ccc2ncsc12,1.02 µM
2,CO/C(=C\C=C\c1cc2cc(Cl)c(Cl)cc2[nH]1)C(=O)NC1C[C@H]2CC[C@@H](C1)N2C (some centres not stated),1.03 µM
3,O=C(/C=C/c1ccc(Cl)c(Cl)c1)Nc1cccc(CN2CCC(c3c[nH]c4ccccc34)CC2)c1,0.67 µM
4,COc1ccc2ncc(F)c(CCN3CC[C@@H](CNCc4ccc5c(c4C)OCCO5)C3)c2n1,1.03 µM
5,CCc1cccc(C)c1-n1nc(-c2cc(C(C)(C)C)oc2C)cc1N,0.66 µM
6,FC(F)(F)c1ccc2nc(-c3cccc(-c4ccc(CNCCc5ccncc5)cc4)c3)[nH]c2c1,0.1 µM
7,CC(C)CCN(Cc1cncn1Cc1cccc(C(F)(F)F)c1)C(=O)c1cncc(-c2ccccc2)c1,0.77 µM
8,CCOC(=O)CNC(=O)N1CCN(C(=O)NCC(=O)OCC)CC1,0.85 µM
9,Cc1nnsc1C(=O)Nc1cccc(-c2ccc(-c3nc4ccccc4[nH]3)cc2)c1,0.87 µM
10,CCN(CCCN1CCCCC1)c1cc(C)nc(Nc2cc(C(F)(F)F)ccc2C)n1,0.86 µM
11,Cc1cccc2[nH]c(-c3ccc(-c4ccc(NC(=O)C(=O)c5cccn5C)cc4)cc3)nc12,0.82 µM
12,COc1cccc(CNC[C@@H](O)[C@H](Cc2ccccc2)NC(=O)c2cc(C3CCCC3)cc(N3CCCCS3(=O)=O)c2)c1,0.6 µM
13,CC(C)CCC[C@@H]([C@@H](CC1CCCCC1)C(=O)N[C@@H](CCCCNC(=O)OCc1ccccc1)C(=O)Nc1nccs1)N(O)C=O,0.46 µM
14,OCCN1CCN(C2Cc3ccc(F)cc3Sc3ccc(Cl)cc32)CC1 (configuration not stated),0.88 µM
15,CN(C)S(=O)(=O)c1ccc(N2CCN(CCC3(c4cccc(F)c4)CCN(C(=O)C(C)(C)C)CC3)CC2)c2nonc12,0.7 µM
16,N#Cc1ccc(-c2ccc(C(=O)NCCCCN3CCC(c4ccc5c(c4OCc4ccncc4)CCCC5)CC3)cc2)cc1,0.76 µM
17,CCOc1ccc(-c2cc3nc(C4CCNCC4)c(C(=O)Nc4ccc(C)cc4Cl)cn3n2)cc1,0.92 µM
18,N#Cc1c(N)n(CCc2ccc(F)cc2)c2nc3ccccc3nc12,0.97 µM
19,COc1ccc(C(=O)CCC(=O)N(Cc2ccc(-c3ccc(CNCCc4ccc(S(C)(=O)=O)cc4)cn3)cc2)C2CCN(Cc3ccccc3)CC2)cc1F,0.44 µM
20,Cc1cccc(C(=O)Nc2ccnc(N3CCC(N(C)Cc4ccc(C#N)cc4)CC3)c2)c1,0.91 µM
21,CCc1cc(NC2CCN(C)CC2)nc(Nc2cccc(OC)c2)n1,0.86 µM
22,COc1ccc(-c2cccc(NC(=O)c3cccc(C#N)c3)c2)cc1CN1CCC(O)CC1,0.99 µM
23,CCCCCCn1c(Sc2ccc(C#N)c([N+](=O)[O-])c2)nnc1-c1ccccc1,0.77 µM

row,Compound,IC50
1,COc1ccc(CNCc2ccc(F)cc2)cc1-c1ccc(S(=O)(=O)NCCN2CCCC2)cc1,1.04 µM
2,CNc1ccc(CNCc2ccc(-c3ccc(-c4nc5ccc(F)cc5[nH]4)cc3)cc2)cc1,0.21 µM
3,Cc1cc2c(NC(=O)NC3CCN(CCc4ccccc4Cl)CC3)cccc2cn1,0.39 µM
4,Fc1ccccc1COc1ccc(Nc2ncnc3ccc(-c4nnc(C(F)(F)F)o4)cc23)cc1Cl,0.73 µM
5,C=C(C)Cn1cc(C2CCN(CCN3CCC(CNC(=O)c4ccc(-c5ccc(C#N)cc5)cc4)CC3)CC2)c2ccccc21,0.43 µM
6,COc1ccc2nccc([C@@H](O)CN3CCC(NC(=O)/C=C/c4ccc5[nH]c(=O)ccc5c4)CC3)c2c1,0.97 µM
7,Cc1c(S(=O)(=O)Nc2ccc3nccc(N4CCN[C@H](C)C4)c3c2)sc2ccc(Cl)cc12,0.84 µM
8,CCN(CC)CCOc1ccc(Nc2ncc3cc(-c4c(Cl)cccc4Cl)c(=O)n(C)c3n2)cc1,1.18 µM
9,CCCCN(CCCC)C(=N)c1cccc2c1CCCC2,1.56 µM
10,O=S(=O)(Nc1cc2c(cc1O)CCNCC2)c1ccc(-c2ccc(Cl)cc2)cc1,0.98 µM
11,CCN(CC)CCCC(C)Nc1ccnc2[nH]c3ccccc3c12 (configuration not stated),1.77 µM
12,Cc1cc(N[C@@H](Cc2ccccc2)C(=O)NCCOc2ccccc2)nc(NCc2ccccc2C)n1,0.71 µM
13,N#Cc1ccc(NC(=O)Nc2ccc(OC(F)(F)F)cc2)cc1,0.82 µM
14,COc1ccc(Nc2nc(NN=Cc3cc(Cl)ccc3O)nc(Nc3ccccc3)n2)cc1,0.65 µM
15,CC1CN(c2ccc(NC(=O)c3ccc(F)cc3)cc2)CCN1Cc1cccc(F)c1 (configuration not stated),1.35 µM
16,O=C(NC1CCC1)C1CCN(C(c2ccc(Cl)cc2)c2ccc(Cl)cc2)CC1,0.56 µM
17,CCCOc1cc(O)c(-c2n[nH]c(C)c2Oc2ccccc2)cc1CC,1.07 µM
18,CC1(C)C(N(O)C(=O)Nc2ccc(Cl)c(Cl)c2)N(c2ccc(Cl)c(Cl)c2)C(=O)N1CCc1ccccc1 (configuration not stated),0.82 µM
19,COc1cc(NC2CCCC(NCc3cn(S(=O)(=O)c4ccccc4)c4ccccc34)C2)nc2ccccc12 (configuration not stated),0.25 µM
20,Cc1cc(NC(=O)NCCN2CCC(NS(=O)(=O)c3ccc(C(F)(F)F)cc3)C2)c2ccccc2n1 (configuration not stated),0.65 µM
21,CCN(CC)CCCCOc1ccc2c(c1)C(=O)c1cc(OCCCCN(CC)CC)ccc1-2,0.76 µM
